Data on 2 molecules can be found in patent US12139729B2, “Neurodegenerative disorders” (priority 2013, dated 2024).

Series [1] deals with Aβ42. Description: ELISA detection of Aβ42 in cell culture media. It is filed as cell-based. Conditions: 1 hour. As for the experimental part:
After 1 hour of treatment, the culture media was collected and diluted to 1:100, using culture media as diluent. Four repeats of each diluted sample were then placed in the plate provided by the ELISA detection kit, from AnaSpec (Fremont, CA, USA). The detection was then carried out following the manufacturer's protocol. Briefly, the sample was incubated for 4 h in presence of 50 μl of detection antibody. The plate was then washed seven times with the washing solution, the samples were then incubated with the 3,3′,5,5′-Tetramethylbenzidine (TMB) provided with the kit for 15 min. after the sample revelation the reaction was stopped with the stop solution and the optical density was read at 450 nm.
Accordingly, using immunodetection, the inventors have determined (i) APP levels and (ii) release of amyloid following administration of T30 (5 uM) and NBP14 (0.5 μM).
Background: An ELISA detects its analyte on a solid surface through an enzyme-linked reagent.

The subject of series [2] is cortical networks in rat brain slices. Description: Voltage-sensitive dye imaging (VSDI) of thalamocortical brain slices. It is filed as cell-based, rat (Wistar). Conditions: for T30-induced increase of rise-phase slope (velocity of propagation): n=3. An excerpt:
Using this technique the inventors can obtain comprehensive sets of data on neuronal population activity such as (a) the intensity of the response in any given area, from which (b) the spread of elicited neuronal assemblies can be measured, and from this parameter (c) the velocity of propagation of the activity wave-front from the point of initiation (d) measured as the slope of the spread. Each of these parameters have been measured independently for two experiments carried out so far: i) an investigation of the effects induced by increasing concentrations (0.5, 0.75, 1 & 5 μM) of T30 on cortical population activity and responsiveness, and 2) assessing the antagonistic effects of NBP-14 on a single, relatively high (1 uM), T30 concentration. • Technique used: voltage-sensitive dye imaging (Di-4-ANEPPS) of thalamocortical (TC) p14 rat (Wistar) brain slices. • Stimulation paradigm: 40 Hz (consistent with thalamo-cortical recurrent stimulation) paired pulse stimulation. • Perfusion paradigm: epochs carried out in two phases—for every drug perfusion (say: control, 0.1 uM T30 etc.), the new perfusion was applied and left to perfuse for 15 minutes before starting the recording period (15 minutes also), such that the drug had time to reach its actual concentration and induce its concentration-dependent effects once recording. Meaning one perfusion epoch lasted 30 minutes, with the recording only taking in account the last 15 minutes of its respective perfusion epoch. Detailed Methods Brain Slice Preparation
Male Wistar rats (14-17 day old; 15 individual animals in total) were anaesthetised using isoflurane: 10 mL 100% w/w isoflurane was applied to the cotton bed at the bottom of an anaesthesia chamber (glass box 20×15×15 cm) where rats were then placed for ˜45 seconds until onset of anaesthesia. The hind paw of each anaesthetised rat was pinched to check for appropriate depth of anaesthesia. Once anaesthesia was confirmed, rats were quickly decapitated before immersing the brain in oxygenated ice-cold artificial cerebrospinal fluid (‘slicing’ aCSF in mmol: 120 NaCl, 5 KCl, 20 NaHCO3, 2.4 CaCl2), 2 MgSO4, 1.2 KH2PO4, 10 glucose, 6.7 HEPES salt and 3.3 HEPES acid; pH: 7.1) for 7-8 minutes, the time taken to cut the brain into slices. Para-saggital sections (400 μm thick) were cut from a block of brain containing both Thalamus (VPN) and primary somato-sensory cortex (barrel field) using a Vibratome (Leica VT1000S) and transferred to a bubbler pot containing aCSF at room temperature (‘recording’ aCSF in mmol: 124 NaCl, 3.7 KCl, 26 NaHCO3, 2 CaCl2, 1.3 MgSO4, 1.3 KH2PO4 and 10 glucose; […]), which was identical to that which was used during electrophysiological recordings and VSDI. Slices were left in oxygenated (95% O2-5% CO2) ‘recording’ aCSF to recuperate for at least 1 hour before VSD staining.
Slices were placed in a dark, high humidity chamber filled with aCSF bubbling with 95% O2-5% CO2. The dye solution (4% 0.2 mM styryl dye pyridinium 4-[2-[6-(dibutylamino)-2-naphthalenyl]-ethenyl]-1-(3-sulfopropyl)hydroxide (Di-4-ANEPPS, Invitrogen, Paisley, UK) (Tominaga et al., 2000) in aCSF 46%, fetal bovine serum 46%, DMSO 3.5% and cremophore EL 0.4%) was then applied to the slices as previously described (Badin et al., 2013). When starting VSD recordings, slices were placed in the recording bath on a small piece of filter paper to keep slice alive and was weighed down appropriately using a home-made plastic grid placed atop the slice. Because of the fluorescent VSD, all of the handling of slices during and after staining with Di-4-ANEPPS was carried out in almost complete darkness in order to keep the detrimental effects of photo-toxicity and bleaching to a minimum. VPN (where stimulating electrodes were placed) was identified with respect to distance from the tip of the hippocampus and to the side of the internal capsule. […]

Series [3] is described as follows: Sulforhodamine B (SRB) cell viability assay. It is filed as cell-based. Conditions: 1 hour. As for the experimental part: Wild-type PC12 cell were provided by Sigma-Aldrich (St. Louis, MO). The culture was routinely plated in 100 mm dishes (Corning) coated with collagen (2 μg/cm^2) and maintained in growth medium with Minimum Essential Medium Eagle (MEM) supplemented with heat-inactivated 10% horse serum (HS) and 5% foetal bovine serum (FBS), 10 mM HEPES, 2 mM L-Glutamine and 1:400 Penicillin/streptomycin solution. Cells were maintained at 37° C. in a humidified atmosphere 5% CO2 and the medium was replaced every 2 days. For splitting, cells were dislodged from the dish using a pipette with medium, with a portion of these replated onto new cultured dishes. Cells were used between passages 12 and 25.
The cell viability assay used was the sulforhodamine B (SRB) colorimetric assay for toxicity screening. The day before of the experiment cells were seeded onto collagen-coated 96-well plates in a concentration of 40,000 cells/well. Cell concentration was determined by the Fuchs-Rosenthal chamber. […] After treatment, medium was replaced and cells were fixed by adding 100 μl of 10% Trichloroacetic Acid (TCA) for 1 h at 4° C. Thereafter, cells were washed with H2O and stained with 100 μl of a 0.057% SRB solution in 1% Acetic acid (HAc) for 30 minutes at room temperature. After staining cells were washed with 1% HAc for removing the excess of SRB and then incubated with 200 μl of 10 mM Tris base (pH 10.5) and shake it for 5 minutes to solubilise the protein-bound dye. Measurement of the absorbance took place in a VMax Kinetic Microplate Reader (Molecular Devices) at 490 nm.

The viability is a read-out of living cells in per cent, often relative to untreated cells.

Read-outs that look alike come from different tables or passages of the source. Residues, ends and D or L forms follow the SMILES beside them. No end group written: not given here.

For `CSCC[C@@H]1NC(=O)[C@H](Cc2ccc(O)cc2)NC(=O)[C@H](CO)NC(=O)[C@H](CO)NC(=O)[C@H](Cc2c[nH]c3ccccc23)NC(=O)[C@H](CCCNC(=N)N)NC(=O)[C@H](Cc2c[nH]cn2)NC(=O)[C@H](Cc2ccccc2)NC(=O)[C@H](CCC(=O)O)NC(=O)[C@H](C)NC(=O)[C@H](CCCCN)NC(=O)[C@H](Cc2c[nH]c3ccccc23)NC(=O)[C@H](Cc2c[nH]cn2)NC(=O)[C@H](C(C)C)NC1=O` [Cyclic T14] (cyclo(AEFHRWSSYMVHWK)), in series [1] (T30 (5 uM) + NBP14 (0.5 μM)), the “release of Aβ42 in presence of T30 and NBP-14” value is recorded as “close to control”. Further, in series [2], the “modulatory effects of NBP-14 on its own” value is on record as “inert”. In addition, the “modulatory effects of T30 on neuronal populations under NBP-14” value in series [2] (300 nM NBP-14, T30 1000 nM) is on record as “reduced back to control levels”. Moreover, the figures for the “T30-induced increase of rise-phase slope (velocity of propagation)” value in series [2] (T30 1 μM + 100 nM NBP-14 perfusion) and in series [2] (T30 1 μM + 300 nM NBP-14 perfusion) were “slowed down” and “reversed back to baseline levels”, respectively. In addition, the viability in series [3] (T30 10 μM + Cyclic T14 100 nM, read-out: cell viability, T30 combined with Cyclic T14) was 88.6 ± 8.79%; in series [3] (cell viability, β-amyloid combined with Cyclic T14, β-Amyloid 10 μM + Cyclic T14 100 nM), 94.5 ± 7.4%; in series [3] (cell viability, β-amyloid combined with Cyclic T14, β-Amyloid (10 μM) + Cyclic T14 0.5 nM), 88.5 ± 10%; in series [3] (cell viability, β-amyloid combined with Cyclic T14, β-Amyloid (10 μM) + Cyclic T14 1 nM), 97.3 ± 9.57%; in series [3] (cell viability, β-amyloid combined with Cyclic T14, β-Amyloid (10 μM) + Cyclic T14 10 nM), 102 ± 8.53%; in series [3] (cell viability, β-amyloid combined with Cyclic T14, β-Amyloid (10 μM) + Cyclic T14 50 nM) it was 102 ± 14%. For the same molecule, the viability at 10 µM in series [3] (cell viability, β-amyloid combined with Cyclic T14, β-Amyloid (10 μM) + Cyclic T14 'moo' (nM)) is 104 ± 6.34%. The viability at 1 h, 0.1 µM in series [3] (rat, PC12 cells (wild-type), Cyclic T14 alone 100 nM, PC12) was found to be 98.8 ± 15.2%. Moreover, in series [3] (rat, PC12 cells (wild-type), Cyclic T14 alone 700 nM, PC12), the viability at 1 h, 0.7 µM came to 107 ± 19.9%. Moreover, the viability at 1 h, 1 µM in series [3] (rat, PC12 cells (wild-type), Cyclic T14 alone 1 μM, PC12) stood at 105 ± 10.9%. Besides, the viability at 1 h, 100 µM in series [3] (rat, PC12 cells (wild-type), Cyclic T14 alone 100 μM, PC12) turned out to be 93.6 ± 11.6%.
Turning to “KAEFHRWSSYMVHWKNQFDHYSKQDRCSDL [T30, reference compound]”, in series [1] (T30 (5 uM)), the “release of Aβ42 compared to control” value is “approximately 175%”. Moreover, the “maximum decrease in propagation speed (slope of the rise phase)” value in series [2] (5 μM T30) came out at 3.5 fold. Moreover, the “spread of cortical assemblies” value in series [2] (T30 0.5, 0.75, 1 μM, affected only at 5 uM) is recorded as “not significantly affected”. Besides, in series [2] (increasing T30 concentration (0.5-5 μM)), the “intensity of fluorescence given off by active pixels” value was “diminishes”. The viability at 10 µM in series [3] (10 μM, PC12, read-out: cell viability, peptide alone) is 68.4 ± 3.1%.
